The subject of assay [1] is mice fed with high-fat feed. Description: Lipid-lowering function test (animal test): serum lipids (HDL-C, LDL-C) of mice on high-fat feed. The class given is in vivo, C57BL/6 mice. To be noted: gavage, 8 weeks. As to the method: Samples: The water-insoluble dietary fiber component ACA-DK of Antrodia cinnamomea, which is prepared as a suspension of a certain concentration and placed at 4° C. for further use.
Test animals: 40 C57BL/6 SPF-grade mice weighing 18-22 g were purchased from Shanghai JieSijie Experimental Animal Co., Ltd. (license No. SCXK20180004). They were randomly divided into 4 groups with 10 mice in each group.
Test method: In test environment, the mice were divided into the following 4 groups: Normal group NG (gavage with normal saline), model group MG (high-fat diet), positive control group PG (gavage with lovastatin) and insoluble dietary fiber group LG. Mice in normal group NG were fed with basic feed, and mice in the rest of the groups were fed with high-fat feed. For mice in insoluble dietary fiber group LG, gavage with the dietary fiber was administered once a day for 8 weeks.
Feeding conditions: Mice were raised in an IVC system with a temperature of 18-22° C. and a relative humidity of 40-70%. License No. of the laboratory animal using license is SCXK20180004. The irradiated sterile feed for mice was purchased from Jiangsu Synergy Pharmaceutical Bioengineering Co., Ltd.
Basic feed: Flour 20%, bran 25%, corn 20%, rice flour 10%, soybean meal 20%, fish meal 2%, bone meal 2%, salt 0.9%, vitamin 0.1%;
High-fat feed: Lard 10%, sucrose 5%, cholesterol 1%, bile salt 0.3%, basic feed 83.7%. […]

The subject of assay [2] is mice fed with high-fat feed. Briefly: Lipid-lowering function test (animal test): TG and TC of mice on high-fat feed. The class given is in vivo, C57BL/6 mice. To be noted: gavage, 8 weeks.
Text: SPSS 22.0 Software was used to statistically analyze the original data of each experiment, and the ANOVA program was used to test the significance of the data.

Marks after values point to notes of the source that are not given here.

`CC[C@H](C)C(=O)O[C@H]1C[C@@H](C)C=C2C=C[C@H](C)[C@H](CC[C@@H]3C[C@@H](O)CC(=O)O3)[C@H]21` [lovastatin]: in assay [1], the HDL-C is recorded as 2.45 ± 0.20 ^D mmol/L and the LDL-C is 7.73 ± 3.07 ^b mmol/L. Also, in assay [2], the TC was 0.024 ± 0.005 ^a mmol/g prot and the TG is recorded as 0.031 ± 0.019 ^B mmol/g prot.

For the origin of these results see patent US20250114415A1, “METHOD FOR LOWERING CHOLESTEROL AND LIPID LEVELS USING THE ANTRODIA CINNAMOMEA WATER-INSOLUBLE DIETARY FIBER” (UNIVERSITY OF SHANGHAI FOR SCIENCE AND TECHNOLOGY, priority 2020, published 2025).
